Test results from patent US12377100B2 (GILEAD SCIENCES, INC., priority 2015, dated 2025).

Legend:
TNFα = experiment: PBMC cytokine profiling assay, TNFα induction; assay type: cell-based; conditions: human PBMCs, 24 hours incubation
Outline: (§1)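 Cryopreserved healthy-donor human PBMCs (100k cells/well) were exposed for 24 h at 37 °C to a 10-point half-log compound series in 0.5% final DMSO. Secreted cytokines in the conditioned medium were quantified by MSD electrochemiluminescence, with TNFα samples diluted 1:9. AC50 was fitted by non-linear regression on percent activation normalised to plate controls.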

[1] = MT-4 cytotoxicity assay, Cell Titer Glo, 5 days; assay type: cell-based, human; conditions: human, MT-4 cells; MT-4, five days incubation, intracellular ATP; read-out: CC50 (MT4)
Text: (§2) To assess potential off-target toxicity of certain compounds disclosed herein, the in vitro cytotoxicity of those compounds was profiled using a panel of 5 cell lines with various tissue origins. Compound cytotoxicity was examined in hepatoma-derived Huh-7 and HepG2 cells, prostate carcinoma-derived PC-3 cells, lymphoma derived MT-4 cells and a normal diploid lung cell line MRC-5. HepG2 and PC-3 cells used were adapted to grow in glucose-free galactose-containing medium. These cells have a relatively higher sensitivity to inhibitors of mitochondrial oxidative phosphorylation compared to the same cells maintained in standard glucose-containing culture medium (Marroquin et al., Toxicol. Sci. 2007; 97 (2):539-47). Cell viability was determined by measuring intracellular ATP levels following five days of continuous incubation with test compounds.
(§3) The human hepatoma Huh-7 cell line was obtained from ReBLikon GmbH (Mainz, Germany) {20879}. The MT-4 cell line (HTLV-1 transformed, human T lymphoblastoid cells) was obtained from the NIH AIDS Reagent program (Bathesda, MD). The human hepatoblastoma cell line HepG2, human prostate carcinoma cell line PC-3, and normal fetal lung derived MRC-5 cells were obtained from the American Type Culture Collection (ATCC, Manassas, VA).
(§4) Huh-7 cells were maintained in Dulbecco's Modified Eagle Medium (DMEM) supplemented with 10% fetal bovine serum (FBS, Hyclone, Logan, UT), 1% non-essential amino acids (Gibco, Carlsbad, CA). PC-3 and HepG2 cells were adapted to grow in 0.2% galactose-containing, glucose-free Dulbecco's Modified Eagle Medium (DMEM) supplemented with 10% fetal bovine serum (FBS, Hyclone, Logan, UT), 1% non-essential amino acids (Gibco, Carlsbad, CA), 1% Pyruvate (Cellgro), 1% Glutamax (Invitrogen, Carlsbad, CA). Galactose-adapted cells were maintained in the same culture medium. MRC-5 cells were maintained in Eagle's Minimum Essential Medium (EMEM) supplemented with 10% fetal bovine serum (FBS, Hyclone, Logan, UT). MT-4 cells were maintained in RPMI-1640 supplemented with 10% fetal bovine serum (FBS, Hyclone, Logan, UT). All cell culture media were also supplemented with 100 Units/mL penicillin, 100 μg/mL streptomycin (Gibco).
For the MT-4 cytotoxicity assay, 0.4 μL of serially diluted compounds were added to 40 μl of cell maintenance media in 384-well black, solid bottom plate using a Biomek FX workstation (Beckman Coulter). Two thousand cells in 35 μL were added to each well using a Biotek uFlow Workstation (Biotek). Each assay plate contained 10 μM Puromycin (final concentration) and 0.5% DMSO in RPMI-1640 as positive and negative controls, respectively. Assay plates were incubated for five days at 37° C. in an incubator set at 5% CO2 and 90% humidity. After five days, 22 μL of Cell Titer Glo reagent (Promega) was added to the assay plates with a Biotek uFlow Workstation. Plates were subsequently placed on a Perkin Elmer Envision Plate Reader for five minutes before the luminescence signal was read.
(§5) CC50 values were defined as the compound concentration that caused a 50% decrease in luminescence signal, and were calculated by non-linear regression using Pipeline Pilot software by applying a four parameter fit equation (Accelrys, San Diego, CA). Individual CC50 values are listed as μM concentrations.

MRC-5 cells = experiment: Cytotoxicity assay, MRC-5 cells, Cell Titer Glo, 5 days; assay type: cell-based, human; conditions: MRC-5, five days incubation, intracellular ATP; read-out: CC50 MRC5 CTG 5D
Text: as §2, §3, §4
(§6) Using a Biotek uFlow Workstation (Biotek, Winooski, VT), 1500 HepG2, 1500 PC-3, 500 Huh7 or 1500 MRC-5 cells in 90 μL of culture media were dispensed into each well of black polystyrene tissue culture-treated 384-well plates. Plated cells were incubated for 24 hours in an incubator at 37° C., 5% CO2 and 90% humidity. Compound serial dilutions were performed in 100% DMSO in 384-well polypropylene (high recovery) plates on a Biomek FX Workstation (Beckman Coulter, Fullerton, CA). After 3-fold serial dilutions, 0.4 μL of compounds were transferred into 384-well plates containing cells using a Velocity 11 system equipped with a Bravo 384-well pipettor. The DMSO concentration in the final assay plates was 0.44% (v/v). Cells were incubated with compound(s) for five days at 37° C. Puromycin (44 μM final concentration) and DMSO (0.44%, v/v) were used as a positive and negative controls, respectively
(§7) At the end of the incubation period the cytotoxicity assay was performed as follows: Media from 384-well cell culture plates were aspirated with a Biotek EL405 plate-washer (Biotek) and cells were washed with 100 μL PBS once. Twenty microliters of Cell Titer Glo (Promega, Madison, WI) was added to each well of the plates with a Biotek uFlow liquid dispenser. Plates were incubated for 15 minutes at room temperature before luminescence was measured with a Perkin Elmer Envision Plate Reader (Perkin Elmer, Waltham, MA).
as §5

IL12p40 = experiment: PBMC cytokine profiling assay, IL12-p40 induction; assay type: cell-based; conditions: human PBMCs, 24 hours incubation
Outline: as §1

Huh-7 cells = experiment: Cytotoxicity assay, Huh-7 cells, Cell Titer Glo, 5 days; assay type: cell-based, human; conditions: Huh-7, five days incubation, intracellular ATP; read-out: CC50 HUH7 CTG 5D
Text: as §2, §3, §4, §6, §7, §5

IFNα = experiment: PBMC cytokine profiling assay, IFNα induction; assay type: cell-based; conditions: human PBMCs, 24 hours incubation
Outline: as §1

[2] = Cytotoxicity assay, galactose-adapted HepG2 cells, Cell Titer Glo, 5 days; assay type: cell-based; conditions: human, galactose-adapted HepG2, five days incubation, intracellular ATP, read-out: CC50 GALHEPG2 CTG 5D
Text: as §2, §3, §4, §6, §7, §5

[3] = Cytotoxicity assay, galactose-adapted PC-3 cells, Cell Titer Glo, 5 days; assay type: cell-based; conditions: human, galactose-adapted PC-3, five days incubation, intracellular ATP, read-out: CC50 GALPC3 CTG 5D
Text: as §2, §3
as §4, with “(Gibco). […]” for “(Gibco).”
as §7, with “Twenty microliters of Cell Titer Glo (Promega, Madison, WI) was added to each well of the plates with a Biotek uFlow liquid dispenser.” left out, “MA). […]” for “MA).”

[4] = Cytotoxicity assay, MRC-5 cells, Cell Titer Glo, 5 days; assay type: cell-based, human; conditions: human, MRC-5 cells; MRC-5, five days incubation, intracellular ATP; read-out: CC50 MRC5 CTG 5D
Text: as §2, §3, §4, §6, §7, §5

[5] = Cytotoxicity assay, Huh-7 cells, Cell Titer Glo, 5 days; assay type: cell-based, human; conditions: human, Huh-7 cells; Huh-7, five days incubation, intracellular ATP; read-out: CC50 HUH7 CTG 5D
Text: as §2, §3, §4, §6, §7, §5

Structure (SMILES)	AC50 (TNFα; Homo sapiens, PBMC, 24 h) [nM]	CC50 (MRC-5 cells) [µM]	AC50 (IL12p40; Homo sapiens, PBMC, 24 h) [nM]	CC50 (Huh-7 cells) [µM]	AC50 (IFNα; Homo sapiens, PBMC, 24 h) [µM]	other results
CCCC[C@](C)(CNC(C)=O)Nc1nc(N)nc2cc(F)cnc12 [Example 101, (R)—N-(2-((2-amino-7-fluoropyrido[3,2-d]pyrimidin-4-yl)amino)-2-methylhexyl)acetamide]	100	44.4	110	44.4	> 50	CC50 at 5 days [1]: 50 µM; CC50 at 5 days [2]: 44.4 µM
CCCC[C@@](C)(Nc1nc(N)nc2cccnc12)C(C)O (single isomer, unassigned) [Example 97]		44.4		44.4		AC50 (TNFα): 140 nM; CC50 at 5 days [1]: 50 µM; AC50 (IL12p40): 130 nM; AC50 (IFNα): 26 µM
CCCC[C@@](C)(Nc1nc(N)nc2cc(F)cnc12)C(C)O (single isomer, unassigned) [Example 95]		44.4				AC50 (TNFα): 150 nM; AC50 (IL12p40): 150 nM; AC50 (IFNα): > 50 µM
CCCC[C@](C)(CO)Nc1nc(N)nc2cccnc12 [Example 59, (R)-2-((2-aminopyrido[3,2-d]pyrimidin-4-yl)amino)-2-methylhexan-1-ol]	180		170		15	CC50 at 5 days [3]: 5.2 µM; CC50 at 5 days [1]: 31.4 µM; CC50 at 5 days [4]: 40.3 µM; CC50 at 5 days [5]: 35.4 µM; CC50 at 5 days [2]: 8.88 µM
CCCC[C@@](C)(CO)Nc1nc(N)nc2cc(F)cnc12 [Example 64, (S)-2-((2-amino-7-fluoropyrido[3,2-d]pyrimidin-4-yl)amino)-2-methylhexan-1-ol]	3100		3200		37.9	CC50 at 5 days [3]: 1.55 µM; CC50 at 5 days [1]: 0.79 µM
CCCC[C@H](CO)Nc1nc(N)nc2cccnc12 [Example 15, (R)-2-((2-aminopyrido[3,2-d]pyrimidin-4-yl)amino)hexan-1-ol]	1600		1200		> 200	CC50 at 5 days [5]: 10.7 µM
CCCC[C@H](CNC(C)=O)Nc1nc(N)nc2cccnc12 [Example 51, (R)—N-(2-((2-aminopyrido[3,2-d]pyrimidin-4-yl)amino)hexyl)acetamide]	370	44.4	330	44.4	> 200	CC50 at 5 days [2]: 44.4 µM
CCCC[C@@H](Nc1nc(N)nc2cc(F)cnc12)C(O)CF (stereo partly drawn) [Example 102, (3R)-3-((2-amino-7-fluoropyrido[3,2-d]pyrimidin-4-yl)amino)-1-fluoroheptan-2-ol]	810	44.4	760	44.4	> 50	
CCCC[C@](CO)(Nc1nc(N)nc2cccnc12)C(F)(F)F [Example 93, (R)-2-((2-aminopyrido[3,2-d]pyrimidin-4-yl)amino)-2-(trifluoromethyl)hexan-1-ol]	440		400	44.4	> 50	CC50 at 5 days [4]: 38.8 µM
CCC[C@@H](CO)Nc1nc(N)nc2cc(C)cnc12 [Example 20, (S)-2-((2-amino-7-methylpyrido[3,2-d]pyrimidin-4-yl)amino)pentan-1-ol]	3200		2800		5.4	
CCCCC[C@](C)(CO)Nc1nc(N)nc2cc(F)cnc12 [Example 112, (R)-2-((2-amino-7-fluoropyrido[3,2-d]pyrimidin-4-yl)amino)-2-methylheptan-1-ol]						AC50 (TNFα): 360 nM; AC50 (IL12p40): 330 nM; AC50 (IFNα): > 50 µM
CCCC[C@](C)(CNC(C)=O)Nc1nc(N)nc2cc(Cl)cnc12 [Example 65, (R)—N-(2-((2-amino-7-chloropyrido[3,2-d]pyrimidin-4-yl)amino)-2-methylhexyl)acetamide]	110	44.4	90	44.4	> 50	CC50 at 5 days [1]: 50 µM; CC50 at 5 days [2]: 44.4 µM
CCCC[C@](C)(CNC(C)=O)Nc1nc(N)nc2cccnc12 [Example 61]	20	44.4	20	44.4	42.1	CC50 at 5 days [2]: 44.4 µM
CC(C)C[C@@H](CO)Nc1nc(N)nc2cccnc12 [Example 3B, (S)-2-((2-aminopyrido[3,2-d]pyrimidin-4-yl)amino)-4-methylpentan-1-ol]	29400		15500		14.5	
CCCC[C@H](CO)Nc1nc(N)nc2cc(F)c(F)cc12 [Example 46C, (R)-2-((2-amino-6,7-difluoroquinazolin-4-yl)amino)hexan-1-ol]	28600		28500		> 50	
CCCC[C@@H](CO)Nc1nc(N)nc2c(C)ccnc12 [Example 58, (S)-2-((2-amino-8-methylpyrido[3,2-d]pyrimidin-4-yl)amino)hexan-1-ol]	3900		3800		4.1	
CCC[C@@H](CO)Nc1nc(N)nc2cc(F)cnc12 [Example 43C, (S)-2-((2-amino-7-fluoropyrido[3,2-d]pyrimidin-4-yl)amino)pentan-1-ol]	1100		1000		10.9	
CCCC[C@@H](Nc1nc(N)nc2cc(F)cnc12)[C@H](C)O [Example 87, (2S,3R)-3-((2-amino-7-fluoropyrido[3,2-d]pyrimidin-4-yl)amino)heptan-2-ol]	5000		4500		> 50	
CCCC[C@H](CO)Nc1nc(N)nc2cc(Br)cnc12 [Example 82, (R)-2-((2-amino-7-bromopyrido[3,2-d]pyrimidin-4-yl)amino)hexan-1-ol]	16600		14300		> 50	
CSCC[C@@H](CO)Nc1nc(N)nc2cccnc12 [Example 10, (S)-2-((2-aminopyrido[3,2-d]pyrimidin-4-yl)amino)-4-(methylthio)butan-1-ol]	29200		23800		> 50	
